# “And” between values parts separate entries of the source, which are not always exact repeats. Identical values can stand only once.
# System: not listed separately
# Test: in vitro
# Conditions: human, hela-ace2 cells, 50.0
row,SMILES,CC50 at 24 h
1,Cn1ncc(-c2cc3c(N[C@@H](c4ccc5c(c4)OCCO5)C(C)(C)C)ncnc3[nH]2)c1C#N (racemic) [ASAP-0008484],> 20 µM
2,CC(C)[C@@H](Nc1ncnc2[nH]c(-c3cnn(C)n3)cc12)c1ccc2c(c1)OCCO2 [ASAP-0008469],> 20 µM
3,CC(C)[C@@H](Nc1ncnc2[nH]c(-c3ccc4nnn(C)c4c3)cc12)c1ccc2c(c1)S(=O)(=O)CCC2 [ASAP-0011201],> 20 µM

# System: HeLa-ACE2 cells
# Test: not given
# Conditions: not given
SMILES,CC50,cc10
CC(C)[C@@H](Nc1ncnc2[nH]c(-c3cnn(C)n3)cc12)c1ccc2c(c1)OCCO2 [ASAP-0008469],> 20 µM,> 20.0 µM

# Same assay, conditions: HeLa-ACE2 cytotoxicity
SMILES,CC50,cc10
CC(C)[C@@H](Nc1ncnc2[nH]c(-c3ccc4nnn(C)c4c3)cc12)c1ccc2c(c1)S(=O)(=O)CCC2 [ASAP-0011201],> 20 µM,> 20.0 µM

# Same assay, conditions: HeLa-ACE2 cytotoxicity; highest measured response of the dose series
row,SMILES,perc_max_measured
1,CC(C)[C@@H](Nc1ncnc2[nH]c(-c3ccc4nnn(C)c4c3)cc12)c1ccc2c(c1)S(=O)(=O)CCC2 [ASAP-0011201],106.149%

# Same assay, conditions: HeLa-ACE2 cytotoxicity; lowest measured response of the dose series
row,SMILES,perc_min_measured
1,CC(C)[C@@H](Nc1ncnc2[nH]c(-c3ccc4nnn(C)c4c3)cc12)c1ccc2c(c1)S(=O)(=O)CCC2 [ASAP-0011201],70.638%

# Same assay, conditions: protocol HeLa-ACE2 cytotoxicity
SMILES,CC50,cc10
Cn1ncc(-c2cc3c(N[C@@H](c4ccc5c(c4)OCCO5)C(C)(C)C)ncnc3[nH]2)c1C#N (racemic) [ASAP-0008484],> 20 µM,> 20.0 µM

# Same assay, conditions: protocol HeLa-ACE2 cytotoxicity; highest measured response of the dose series
row,SMILES,perc_max_measured
1,Cn1ncc(-c2cc3c(N[C@@H](c4ccc5c(c4)OCCO5)C(C)(C)C)ncnc3[nH]2)c1C#N (racemic) [ASAP-0008484],117.871% and 98.808%
2,CC(C)[C@@H](Nc1ncnc2[nH]c(-c3cnn(C)n3)cc12)c1ccc2c(c1)OCCO2 [ASAP-0008469],104.412% and 106.04%

# Same assay, conditions: protocol HeLa-ACE2 cytotoxicity; lowest measured response of the dose series
row,SMILES,perc_min_measured
1,Cn1ncc(-c2cc3c(N[C@@H](c4ccc5c(c4)OCCO5)C(C)(C)C)ncnc3[nH]2)c1C#N (racemic) [ASAP-0008484],61.501% and 55.999%
2,CC(C)[C@@H](Nc1ncnc2[nH]c(-c3cnn(C)n3)cc12)c1ccc2c(c1)OCCO2 [ASAP-0008469],76.407% and 89.613%

# System: not listed separately
# Test: Permeability Papp (AB) MDR1/MDCKII
# Conditions: In vitro MDR1-MDCKII permeability, A to B, mean
row,SMILES,papp_a_to_b_mean
1,Cn1ncc(-c2cc3c(N[C@@H](c4ccc5c(c4)OCCO5)C(C)(C)C)ncnc3[nH]2)c1C#N (racemic) [ASAP-0008484],2.79 ×10⁻⁶ cm/s

# Same assay, conditions: In vitro MDR1-MDCKII permeability, A to B, no inhibitor
row,SMILES,papp_a_to_b_mean
1,CC(C)[C@@H](Nc1ncnc2[nH]c(-c3ccc4nnn(C)c4c3)cc12)c1ccc2c(c1)S(=O)(=O)CCC2 [ASAP-0011201],0.827 ×10⁻⁶ cm/s

# Same assay, conditions: In vitro MDR1-MDCKII permeability, recovery A to B, mean
row,SMILES,perc_recovery_a_to_b_mean
1,Cn1ncc(-c2cc3c(N[C@@H](c4ccc5c(c4)OCCO5)C(C)(C)C)ncnc3[nH]2)c1C#N (racemic) [ASAP-0008484],39.4%

# Same assay, conditions: In vitro MDR1-MDCKII permeability, recovery A to B, no inhibitor
row,SMILES,perc_recovery_a_to_b_mean
1,CC(C)[C@@H](Nc1ncnc2[nH]c(-c3ccc4nnn(C)c4c3)cc12)c1ccc2c(c1)S(=O)(=O)CCC2 [ASAP-0011201],53.6%

# System: not listed separately
# Test: LogD
# Conditions: pH 7.4; In vitro LogD
row,SMILES,logd
1,Cn1ncc(-c2cc3c(N[C@@H](c4ccc5c(c4)OCCO5)C(C)(C)C)ncnc3[nH]2)c1C#N (racemic) [ASAP-0008484],2.9
2,CC(C)[C@@H](Nc1ncnc2[nH]c(-c3ccc4nnn(C)c4c3)cc12)c1ccc2c(c1)S(=O)(=O)CCC2 [ASAP-0011201],3.4

# System: SARS-CoV-2
# Test: Antiviral effect in iPSC-derived pneumocyte system
# Assay type: cell-based
# Conditions: iPSC pneumocytes SARS-CoV-2 antiviral effect
SMILES,EC50,EC90
Cn1ncc(-c2cc3c(N[C@@H](c4ccc5c(c4)OCCO5)C(C)(C)C)ncnc3[nH]2)c1C#N (racemic) [ASAP-0008484],7.67 µM,13.4 µM
CC(C)[C@@H](Nc1ncnc2[nH]c(-c3cnn(C)n3)cc12)c1ccc2c(c1)OCCO2 [ASAP-0008469],13.3 µM,25.3 µM

# Same assay, conditions: iPSC pneumocytes SARS-CoV-2 antiviral effect; maximum measured response of dose series
row,SMILES,perc_max_measured
1,Cn1ncc(-c2cc3c(N[C@@H](c4ccc5c(c4)OCCO5)C(C)(C)C)ncnc3[nH]2)c1C#N (racemic) [ASAP-0008484],131.986%
2,CC(C)[C@@H](Nc1ncnc2[nH]c(-c3cnn(C)n3)cc12)c1ccc2c(c1)OCCO2 [ASAP-0008469],157.709%

# Same assay, conditions: iPSC pneumocytes SARS-CoV-2 antiviral effect; minimum measured response of dose series
row,SMILES,perc_min_measured
1,Cn1ncc(-c2cc3c(N[C@@H](c4ccc5c(c4)OCCO5)C(C)(C)C)ncnc3[nH]2)c1C#N (racemic) [ASAP-0008484],2.165%
2,CC(C)[C@@H](Nc1ncnc2[nH]c(-c3cnn(C)n3)cc12)c1ccc2c(c1)OCCO2 [ASAP-0008469],4.934%

# System: not listed separately
# Test: In vitro kinetic solubility
# Conditions: In vitro kinetic solubility, ph 7.4
row,SMILES,solubility_mean
1,Cn1ncc(-c2cc3c(N[C@@H](c4ccc5c(c4)OCCO5)C(C)(C)C)ncnc3[nH]2)c1C#N (racemic) [ASAP-0008484],25 µM
2,CC(C)[C@@H](Nc1ncnc2[nH]c(-c3ccc4nnn(C)c4c3)cc12)c1ccc2c(c1)S(=O)(=O)CCC2 [ASAP-0011201],6 µM

# System: not listed separately
# Test: Hepatic microsomal stability, MLM
# Assay type: in vitro ADME
# Conditions: In vitro mouse liver microsomal stability
SMILES,clint,perc_remaining,t_half
Cn1ncc(-c2cc3c(N[C@@H](c4ccc5c(c4)OCCO5)C(C)(C)C)ncnc3[nH]2)c1C#N (racemic) [ASAP-0008484],199.0 µL/min/mg,4.0%,8.4 min
CC(C)[C@@H](Nc1ncnc2[nH]c(-c3ccc4nnn(C)c4c3)cc12)c1ccc2c(c1)S(=O)(=O)CCC2 [ASAP-0011201],219.0 µL/min/mg,3.0%,7.6 min

# Same assay, conditions: In vitro mouse liver microsomal stability, no cofactor
row,SMILES,perc_remaining_no_cofactor
1,CC(C)[C@@H](Nc1ncnc2[nH]c(-c3ccc4nnn(C)c4c3)cc12)c1ccc2c(c1)S(=O)(=O)CCC2 [ASAP-0011201],93.0%

# Same assay, conditions: In vitro mouse liver microsomal stability; no cofactor
row,SMILES,perc_remaining_no_cofactor
1,Cn1ncc(-c2cc3c(N[C@@H](c4ccc5c(c4)OCCO5)C(C)(C)C)ncnc3[nH]2)c1C#N (racemic) [ASAP-0008484],100.0%

# System: not listed separately
# Test: Hepatic microsomal stability, HLM
# Assay type: in vitro ADME, human
# Conditions: In vitro human liver microsomal stability
SMILES,clint,perc_remaining,t_half
Cn1ncc(-c2cc3c(N[C@@H](c4ccc5c(c4)OCCO5)C(C)(C)C)ncnc3[nH]2)c1C#N (racemic) [ASAP-0008484],85.0 µL/min/mg,22.0%,19.6 min
CC(C)[C@@H](Nc1ncnc2[nH]c(-c3ccc4nnn(C)c4c3)cc12)c1ccc2c(c1)S(=O)(=O)CCC2 [ASAP-0011201],752.0 µL/min/mg,0.0%,2.2 min

# Same assay, conditions: In vitro human liver microsomal stability; no cofactor
row,SMILES,perc_remaining_no_cofactor
1,Cn1ncc(-c2cc3c(N[C@@H](c4ccc5c(c4)OCCO5)C(C)(C)C)ncnc3[nH]2)c1C#N (racemic) [ASAP-0008484],109.0%
2,CC(C)[C@@H](Nc1ncnc2[nH]c(-c3ccc4nnn(C)c4c3)cc12)c1ccc2c(c1)S(=O)(=O)CCC2 [ASAP-0011201],93.0%

# System: SARS-CoV-2, isolate USA-WA1/2020
# Test: microbe, parasite or virus in culture
# Assay type: cell-based
# Conditions: HeLa-ACE2 SARS-CoV-2 antiviral effect without P-gp inhibitor; maximum measured response of dose series
row,SMILES,perc_max_measured
1,Cn1ncc(-c2cc3c(N[C@@H](c4ccc5c(c4)OCCO5)C(C)(C)C)ncnc3[nH]2)c1C#N (racemic) [ASAP-0008484],91.316% and 93.387%
2,CC(C)[C@@H](Nc1ncnc2[nH]c(-c3cnn(C)n3)cc12)c1ccc2c(c1)OCCO2 [ASAP-0008469],101.658% and 92.76%
3,CC(C)[C@@H](Nc1ncnc2[nH]c(-c3ccc4nnn(C)c4c3)cc12)c1ccc2c(c1)S(=O)(=O)CCC2 [ASAP-0011201],110.665%

# Same assay, conditions: HeLa-ACE2 SARS-CoV-2 antiviral effect without P-gp inhibitor; minimum measured response of dose series
row,SMILES,perc_min_measured
1,Cn1ncc(-c2cc3c(N[C@@H](c4ccc5c(c4)OCCO5)C(C)(C)C)ncnc3[nH]2)c1C#N (racemic) [ASAP-0008484],1.9% and 1.413%
2,CC(C)[C@@H](Nc1ncnc2[nH]c(-c3cnn(C)n3)cc12)c1ccc2c(c1)OCCO2 [ASAP-0008469],24.481% and 27.109%
3,CC(C)[C@@H](Nc1ncnc2[nH]c(-c3ccc4nnn(C)c4c3)cc12)c1ccc2c(c1)S(=O)(=O)CCC2 [ASAP-0011201],33.895%

# Same assay, conditions: HeLa-ACE2 SARS-CoV-2 antiviral effect without P-gp inhibitor; read-out: ec50
row,SMILES,EC50
1,Cn1ncc(-c2cc3c(N[C@@H](c4ccc5c(c4)OCCO5)C(C)(C)C)ncnc3[nH]2)c1C#N (racemic) [ASAP-0008484],1.05 µM and 1.12 µM
2,CC(C)[C@@H](Nc1ncnc2[nH]c(-c3cnn(C)n3)cc12)c1ccc2c(c1)OCCO2 [ASAP-0008469],5.33 µM and 6.65 µM
3,CC(C)[C@@H](Nc1ncnc2[nH]c(-c3ccc4nnn(C)c4c3)cc12)c1ccc2c(c1)S(=O)(=O)CCC2 [ASAP-0011201],3.64 µM

# Same assay, conditions: HeLa-ACE2 SARS-CoV-2 antiviral effect without P-gp inhibitor; read-out: ec90
row,SMILES,EC90
1,Cn1ncc(-c2cc3c(N[C@@H](c4ccc5c(c4)OCCO5)C(C)(C)C)ncnc3[nH]2)c1C#N (racemic) [ASAP-0008484],2.12 µM and 3.3 µM
2,CC(C)[C@@H](Nc1ncnc2[nH]c(-c3cnn(C)n3)cc12)c1ccc2c(c1)OCCO2 [ASAP-0008469],> 20 µM
3,CC(C)[C@@H](Nc1ncnc2[nH]c(-c3ccc4nnn(C)c4c3)cc12)c1ccc2c(c1)S(=O)(=O)CCC2 [ASAP-0011201],> 20 µM

# System: iPSC pneumocytes
# Test: iPSC pneumocytes cytotoxicity
# Assay type: cell-based
# Conditions: protocol iPSC pneumocytes cytotoxicity
# From the text: Supplement media-1.zip/Cytotoxicity.csv, table | column: cc10; cc50; perc_min_measured; perc_max_measured
SMILES,CC50,cc10
Cn1ncc(-c2cc3c(N[C@@H](c4ccc5c(c4)OCCO5)C(C)(C)C)ncnc3[nH]2)c1C#N (racemic) [ASAP-0008484],48.6 µM,41.767 µM

# Same assay, conditions: protocol iPSC pneumocytes cytotoxicity; highest measured response of the dose series
row,SMILES,perc_max_measured
1,Cn1ncc(-c2cc3c(N[C@@H](c4ccc5c(c4)OCCO5)C(C)(C)C)ncnc3[nH]2)c1C#N (racemic) [ASAP-0008484],107.062%
2,CC(C)[C@@H](Nc1ncnc2[nH]c(-c3cnn(C)n3)cc12)c1ccc2c(c1)OCCO2 [ASAP-0008469],89.766%

# Same assay, conditions: protocol iPSC pneumocytes cytotoxicity; lowest measured response of the dose series
row,SMILES,perc_min_measured
1,Cn1ncc(-c2cc3c(N[C@@H](c4ccc5c(c4)OCCO5)C(C)(C)C)ncnc3[nH]2)c1C#N (racemic) [ASAP-0008484],63.039%
2,CC(C)[C@@H](Nc1ncnc2[nH]c(-c3cnn(C)n3)cc12)c1ccc2c(c1)OCCO2 [ASAP-0008469],75.657%

# From doi:10.1101/2024.08.19.608619, “Discovery of potent SARS-CoV-2 nsp3 macrodomain inhibitors uncovers lack of translation to cellular antiviral response” (bioRxiv, 2024)
